For the assay, the system named is plants. Briefly: general screening of the herbicidal effect. To be noted: 10% w/w; compared with Roundup RTU and Bayer Advanced at 10% and 100% Label Rate; results shown in FIG. 1. It counts as in vivo. The method, then: A general screening of the herbicidal effect of the following compounds was carried out: Bayer Advanced (100% Label Rate), Bayer Advanced (10% Lable Rate), UTC, Diethyl Oxalacetate (10% w/w), Roundup, rtu (10% Label Rate) and Roundup RTU (100% Label Rate).

In the case of `CCOC(=O)CC(=O)C(=O)OCC` [Diethyl Oxalacetate], the herbicidal activity entry was “comparable to well-known herbicide products such as Roundup and Bayer Advanced”.

(Values after US20230309556A1, “HERBICIDAL COMPOSITIONS RELATED TO OXALOACETATE AND METHODS AND USE THEREOF” (priority 2021, published 2023).)
